Earlier results as cited in patent US6251620A, “Three dimensional structure of a ZAP tyrosine protein kinase fragment and modeling methods” (priority 1997, dated 2001).
Non-standard residues stand in square brackets, D forms with d. pY = N[C@@H](Cc1ccc(OP(=O)(O)O)cc1)C(=O)O; Nle = CCCC[C@H](N)C(=O)O

Key:
BDF1 mice = BDF1 mice given DBA/2 spleen:lymph node cells; usable as positive controls
ZAP-NC = details: in vitro binding of ZAP-NC with synthetic phosphopeptides (ref. 25)
MRL/Ipr-mice = details: SLE

Compound	activity in CGVHD model (BDF1 mice)	binding hierarchy (ZAP-NC)	other results
C=CC[C@@H]1/C=C(\C)C[C@H](C)C[C@H](OC)[C@H]2O[C@@](O)(C(=O)C(=O)N3CCCC[C@H]3C(=O)O[C@H](/C(C)=C/[C@@H]3CC[C@@H](O)[C@H](OC)C3)[C@H](C)[C@@H](O)CC1=O)[C@H](C)C[C@@H]2OC [FK506]	active in this model		side effects (kidney and central nervous system): serious side effects in the kidney and central nervous system; kidney toxicity (patients receiving FK506, in some cases kidney transplant required after the liver transplant): severe kidney toxicity has been observed
Ac.Asp.Gly.Leu.pTyr.Gln.Gly.Leu.Ser.Thr.Ala.Thr.Lys.Asp.Thr.pTyr.Asp.Ala.Leu.His.NH2 (Ac-DGL[pY]QGLSTATKDT[pY]DALH-NH2; SMILES CC(=O)N[C@@H](CC(=O)O)C(=O)NCC(=O)N[C@@H](CC(C)C)C(=O)N[C@@H](Cc1ccc(OP(=O)(O)O)cc1)C(=O)N[C@@H](CCC(N)=O)C(=O)NCC(=O)N[C@@H](CC(C)C)C(=O)N[C@@H](CO)C(=O)N[C@H](C(=O)N[C@@H](C)C(=O)N[C@H](C(=O)N[C@@H](CCCCN)C(=O)N[C@@H](CC(=O)O)C(=O)N[C@H](C(=O)N[C@@H](Cc1ccc(OP(=O)(O)O)cc1)C(=O)N[C@@H](CC(=O)O)C(=O)N[C@@H](C)C(=O)N[C@@H](CC(C)C)C(=O)N[C@@H](Cc1c[nH]cn1)C(N)=O)[C@@H](C)O)[C@@H](C)O)[C@@H](C)O) [Ligand 7]		.zeta.1 =.zeta.2 >ε=.zeta.3	
Ac.Asn.Gln.Leu.pTyr.Asn.Glu.Leu.Asn.Leu.Gly.Arg.Arg.Glu.Glu.pTyr.Asp.Val.Leu.Asp.NH2 [Ligand 5]		.zeta.1 =.zeta.2 >ε=.zeta.3	
C[C@]12C=CC(=O)C=C1CC[C@@H]1[C@@H]2[C@@H](O)C[C@@]2(C)[C@H]1CC[C@]2(O)C(=O)CO [prednisolone]	active in this model		
Ac.Gly.Leu.pTyr.Asn.Glu.Leu.Gln.Lys.Asp.Lys.Nle.Ala.Glu.Ala.pTyr.Ser.Glu.Ile.Gly.NH2 (Ac-GL[pY]NELQKDK[Nle]AEA[pY]SEIG-NH2; SMILES CCCC[C@H](NC(=O)[C@H](CCCCN)NC(=O)[C@H](CC(=O)O)NC(=O)[C@H](CCCCN)NC(=O)[C@H](CCC(N)=O)NC(=O)[C@H](CC(C)C)NC(=O)[C@H](CCC(=O)O)NC(=O)[C@H](CC(N)=O)NC(=O)[C@H](Cc1ccc(OP(=O)(O)O)cc1)NC(=O)[C@H](CC(C)C)NC(=O)CNC(C)=O)C(=O)N[C@@H](C)C(=O)N[C@@H](CCC(=O)O)C(=O)N[C@@H](C)C(=O)N[C@@H](Cc1ccc(OP(=O)(O)O)cc1)C(=O)N[C@@H](CO)C(=O)N[C@@H](CCC(=O)O)C(=O)N[C@H](C(=O)NCC(N)=O)[C@@H](C)CC) [Ligand 6]		.zeta.1 =.zeta.2 >ε=.zeta.3	
O=P1(N(CCCl)CCCl)NCCCO1 (centres unmarked) [cyclophosphamide]	active in this model		effect on course of disease (MRL/Ipr-mice): can prevent and reverse the course of disease
Cc1oncc1C(=O)Nc1ccc(C(F)(F)F)cc1 [leflunomide]	active in this model		effect on course of disease (MRL/Ipr-mice): can prevent and reverse the course of disease
